ChEMBL document CHEMBL4765241, “Identification and Preclinical Pharmacology of ((1 R,3 S)-1-Amino-3-(( S)-6-(2-methoxyphenethyl)-5,6,7,8-tetrahydronaphthalen-2-yl)cyclopentyl)methanol (BMS-986166): A Differentiated Sphingosine-1-phosphate Receptor 1 (S1P) Modulator Advanced into Clinical Trials” (J Med Chem, 2019)
Calls of active or inactive are those of the source. The calls are words filed in the database; no cut-off is given here.

How the values were obtained:
[1] = target: Sphingosine 1-phosphate receptor 3 (Homo sapiens, UniProt Q99500); experiment: Agonist activity at human recombinant S1P3 expressed in CHO cell membranes assessed as stimulation of [35S]-GTPgammaS binding measured after 45 mins by liquid scintillation counting assay; parameters: species or system Cell membrane
[2] = test system: Rattus norvegicus; experiment: Reduction in circulating lymphocytes in Lewis rat blood at 2 mg/kg, po measured at 4 hrs by hematology analyzer based analysis; type: functional; parameters: scale not given: the % may be the effect or the level left
[3] = Drug metabolism in Lewis rat blood assessed as concentration of parent compound at 2 mg/kg, po measured at 4 hrs by LC-MS/MS analysis; type: ADME, organism-based; details: read-out: Ct
[4] = test system: Rattus norvegicus; experiment: Reduction in circulating lymphocytes in Lewis rat blood at 2 mg/kg, po measured at 24 hrs by hematology analyzer based analysis; type: functional; parameters: scale not given: the % may be the effect or the level left
[5] = Drug metabolism in Lewis rat blood assessed as concentration of parent compound at 2 mg/kg, po measured at 24 hrs by LC-MS/MS analysis; type: ADME, organism-based; details: read-out: Ct
[6] = Half-life in Lewis rat at 2 mg/kg, po measured over 72 hrs by LC-MS/MS analysis; type: ADME, organism-based; details: in vivo
[7] = Ratio of drug metabolism in Lewis rat blood assessed as phosphate ester metabolite to parent drug at 2 mg/kg, po measured at 24 hrs by LC-MS/MS analysis; type: ADME, organism-based; details: in vivo
[8] = Pulmonary toxicity in Lewis rat assessed as elevation of BAL protein level at 25 mg/kg by advia1800 chemistry analyzer; type: organism-based; details: in vivo
[9] = test system: Rattus norvegicus; experiment: Reduction in circulating lymphocytes in Lewis rat blood assessed as effective dose after oral dosing measured at 24 hrs by hematology analyzer based analysis; type: functional
[10] = test system: Rattus norvegicus; experiment: Drug metabolism in Lewis rat blood assessed as concentration of phosphate ester metabolite formation at 2 mg/kg, po measured at 4 hrs by LC-MS/MS analysis; details: in vivo
[11] = test system: Mus musculus; experiment: Reduction in circulating lymphocytes in Balb/c mouse blood at 1 mg/kg, po measured at 4 hrs by hematology analyzer based analysis; type: functional; parameters: scale not given: the % may be the effect or the level left
[12] = test system: Mus musculus; experiment: Reduction in circulating lymphocytes in Balb/c mouse blood at 15 mg/kg, po measured at 4 hrs by hematology analyzer based analysis; type: functional; parameters: scale not given: the % may be the effect or the level left
[13] = test system: Mus musculus; experiment: Reduction in circulating lymphocytes in Balb/c mouse blood at 1 mg/kg, po measured at 24 hrs by hematology analyzer based analysis; type: functional; parameters: scale not given: the % may be the effect or the level left
[14] = test system: Mus musculus; experiment: Reduction in circulating lymphocytes in Balb/c mouse blood at 15 mg/kg, po measured at 24 hrs by hematology analyzer based analysis; type: functional; parameters: scale not given: the % may be the effect or the level left
[15] = Drug metabolism in Balb/c mouse blood assessed as concentration of parent compound at 1 mg/kg, po measured at 4 hrs by LC-MS/MS analysis; type: ADME, organism-based; details: Balb/c, blood, read-out: Ct
[16] = Drug metabolism in Balb/c mouse blood assessed as concentration of parent compound at 15 mg/kg, po measured at 4 hrs by LC-MS/MS analysis; type: ADME, organism-based; details: read-out: Ct
[17] = Drug metabolism in Balb/c mouse blood assessed as concentration of phosphate ester metabolite formation at 1 mg/kg, po measured at 4 hrs by LC-MS/MS analysis; type: ADME, organism-based; details: in vivo, BLD = below limit of detection
[18] = Drug metabolism in Balb/c mouse blood assessed as concentration of phosphate ester metabolite formation at 15 mg/kg, po measured at 4 hrs by LC-MS/MS analysis; type: ADME, organism-based; details: in vivo
[19] = Drug metabolism in Balb/c mouse blood assessed as concentration of parent compound at 1 mg/kg, po measured at 24 hrs by LC-MS/MS analysis; type: ADME, organism-based; details: Balb/c, blood, read-out: Ct
[20] = Drug metabolism in Balb/c mouse blood assessed as concentration of parent compound at 15 mg/kg, po measured at 24 hrs by LC-MS/MS analysis; type: ADME, organism-based; details: read-out: Ct
[21] = Drug metabolism in Balb/c mouse blood assessed as concentration of phosphate ester metabolite formation at 1 mg/kg, po measured at 24 hrs by LC-MS/MS analysis; type: ADME, organism-based; details: in vivo
[22] = Drug metabolism in Balb/c mouse blood assessed as concentration of phosphate ester metabolite formation at 15 mg/kg, po measured at 24 hrs by LC-MS/MS analysis; type: ADME, organism-based; details: in vivo
[23] = Ratio of drug metabolism in Balb/c mouse blood assessed as phosphate ester metabolite to parent drug at 1 mg/kg, po measured at 24 hrs by LC-MS/MS analysis; type: ADME, organism-based; details: in vivo
[24] = Ratio of drug metabolism in Balb/c mouse blood assessed as phosphate ester metabolite to parent drug at 15 mg/kg, po measured at 24 hrs by LC-MS/MS analysis; type: ADME, organism-based; details: in vivo
[25] = Cardiotoxicity in human iPSC derived cardiomyocytes assessed as reduction in beating rate at 1 nM measured over 2 hrs by multi-electrode array relative to control; type: toxicity, cell-based; parameters: scale not given: the % may be the effect or the level left; details: stem cell-derived cardiomyocyte, 0.001 µM
[26] = Cardiotoxicity in human iPSC derived cardiomyocytes assessed as reduction in beating rate at 10 nM measured over 2 hrs by multi-electrode array relative to control; type: toxicity, cell-based; parameters: scale not given: the % may be the effect or the level left; details: stem cell-derived cardiomyocyte, 0.01 µM
[27] = target: T1, Sphingosine 1-phosphate receptor 4 (Homo sapiens, UniProt O95977); experiment: Agonist activity at human recombinant S1P4 expressed in CHO cell membranes assessed as stimulation of [35S]-GTPgammaS binding measured after 45 mins by liquid scintillation counting assay; type: functional, Cell membrane
T1 sequence (O95977 whole entry): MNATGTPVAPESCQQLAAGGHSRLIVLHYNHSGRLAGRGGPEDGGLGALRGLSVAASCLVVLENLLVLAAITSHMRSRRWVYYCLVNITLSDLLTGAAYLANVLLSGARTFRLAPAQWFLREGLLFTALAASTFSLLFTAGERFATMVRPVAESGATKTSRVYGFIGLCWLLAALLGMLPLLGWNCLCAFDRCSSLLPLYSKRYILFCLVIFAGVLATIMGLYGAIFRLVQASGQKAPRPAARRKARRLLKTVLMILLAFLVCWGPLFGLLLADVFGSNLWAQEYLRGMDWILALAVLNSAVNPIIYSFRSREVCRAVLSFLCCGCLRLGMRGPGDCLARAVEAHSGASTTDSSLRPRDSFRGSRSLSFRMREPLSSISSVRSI

[28] = test system: Cerebellar cortex; experiment: Induction of remyelination in lysophosphatidylcholine-induced demyelination in wild-type CD1 mouse organotypic cerebellar slice at 0.01 to 10 nM incubated for 7 days by immunohistochemistry based three-dimensional brain cell culture assay; type: functional, tissue-based; details: dose 0.01-10 nM, time 7.0 day
[29] = test system: Cerebellar cortex; experiment: Induction of remyelination in lysophosphatidylcholine-induced demyelination in wild-type CD1 mouse organotypic cerebellar slice assessed as myelination index at 0.01 to 10 nM incubated for 7 days by immunohistochemistry based three-dimensional brain cell culture assay (reference value: 50%); type: functional; details: dose 0.01-10 nM, time 7 day

Sphingosine 1-phosphate receptor 3, sequence (Q99500 whole entry): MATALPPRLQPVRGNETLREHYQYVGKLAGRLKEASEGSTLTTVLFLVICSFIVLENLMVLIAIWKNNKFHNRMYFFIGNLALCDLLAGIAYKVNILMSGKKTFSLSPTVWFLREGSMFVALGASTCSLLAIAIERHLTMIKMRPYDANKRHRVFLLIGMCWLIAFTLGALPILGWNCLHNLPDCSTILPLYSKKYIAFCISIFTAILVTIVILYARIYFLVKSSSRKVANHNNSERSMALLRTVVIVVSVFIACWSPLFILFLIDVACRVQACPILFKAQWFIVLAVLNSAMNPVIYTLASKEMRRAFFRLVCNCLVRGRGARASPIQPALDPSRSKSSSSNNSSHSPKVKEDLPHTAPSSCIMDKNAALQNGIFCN

Row | concentration at 4 h [3] [nM] | concentration at 24 h [5] [nM] | half-life [6] [h] | Ratio [7] | Drug metabolism [10] [nM] | Compound | Activity [2] [%] | Activity [4] [%] | Activity [8] [mg/dL] | ED50 [9] [mg/kg] | other results
1 | – | – | – | – | – | CCCCCC[C@@H]1CCc2cc([C@H]3CC[C@](N)(COP(=O)(O)O)C3)ccc2C1 | – | – | – | – | EC50 [1]: > 1000 nM
2 | 170 | 40 | 7 | 0.75 | 10 | COc1ccc(CC[C@H]2CCc3cc([C@H]4CC[C@](N)(CO)C4)ccc3C2)cc1 | 33 | 84 | 24.3 | 0.6 | –
3 | 190 | 40 | 11 | 0.4 | 10 | COc1ccc(CC[C@@H]2CCc3cc([C@H]4CC[C@](N)(CO)C4)ccc3C2)cc1 | 21 | 81 | 26 | 0.5 | –
4 | 130 | 140 | > 75 | 6 | 150 | N[C@]1(CO)CC[C@H](c2ccc3c(c2)CC[C@@H](CCc2ccccc2)C3)C1 | 43 | 82 | – | – | Activity [11]: 10%; Activity [12]: 81%; Activity [13]: 52%; Activity [14]: 88%; concentration at 4 h [15]: 13 nM; concentration at 4 h [16]: 150 nM; Drug metabolism [17]: Bld; Drug metabolism [18]: 110 nM; concentration at 24 h [19]: 12 nM; concentration at 24 h [20]: 160 nM; Drug metabolism [21]: 34 nM; Drug metabolism [22]: 360 nM; Ratio [23]: 2.8; Ratio [24]: 2.3
5 | – | – | – | – | – | CCCCCCCCc1ccc(CC[C@](N)(CO)COP(=O)(O)O)cc1 [FTY720-P] | – | – | – | – | Activity [25]: 38%; Activity [26]: 62%; EC50 [27]: 1.6 nM; Activity [28]: Active; Activity [29]: 100%
